This note sets out measurements from patent publication US20090221559A1 (priority 2005, published 2009).

Read-outs that look alike come from different tables or passages of the source.

The target of experiment [1] is T1, HCV NS5B polymerase (His-tagged, C-terminal 21 amino acid deleted NS5B, HC-J4) (Hepatitis C virus genotype 1b, UniProt O92972).
T1 construct: The cDNA encoding NS5B amino acid 1-570 (HC-J4, genotype 1b); His tag (His6, from pET-21b) (C); made in house; host or cells: E. coli BL21 (DE3)
T1 sequence (O92972 2417-3000, looked up, stated change not applied): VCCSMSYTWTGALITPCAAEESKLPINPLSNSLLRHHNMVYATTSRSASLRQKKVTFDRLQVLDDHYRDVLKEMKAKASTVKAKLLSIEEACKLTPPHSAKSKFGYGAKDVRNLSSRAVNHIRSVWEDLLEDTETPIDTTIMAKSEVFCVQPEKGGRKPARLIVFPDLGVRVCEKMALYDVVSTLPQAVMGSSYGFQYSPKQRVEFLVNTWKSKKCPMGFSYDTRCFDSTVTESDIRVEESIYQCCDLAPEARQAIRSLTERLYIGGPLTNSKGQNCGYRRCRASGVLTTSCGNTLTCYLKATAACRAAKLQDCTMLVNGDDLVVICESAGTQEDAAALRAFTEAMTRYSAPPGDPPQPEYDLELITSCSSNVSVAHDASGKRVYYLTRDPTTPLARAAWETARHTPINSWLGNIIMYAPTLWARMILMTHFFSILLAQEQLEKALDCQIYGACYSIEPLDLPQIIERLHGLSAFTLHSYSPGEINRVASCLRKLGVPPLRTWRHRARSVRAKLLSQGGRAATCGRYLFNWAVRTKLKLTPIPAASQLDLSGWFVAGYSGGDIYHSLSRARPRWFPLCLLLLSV
Put plainly: NS5b polymerase assay (biochemical RdRp assay, 3H-GTP incorporation, SPA beads). The arrangement: species or system HCV genotype 1b. The conditions noted are these: 3H-GTP incorporation, 2 h at 25° C. The essentials: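 3H-GTP incorporation into newly made RNA was captured on SPA beads added in EDTA after 2 h at 25 °C. Compounds in DMSO met preformed enzyme–template complex (200 nM truncated His-NS5B, HC-J4 1b; biotin-oligo(rG13)/poly(rC)) for 15 min at RT, then 600 nM GTP, 5 mM MgCl2, Tris pH 7.5 started polymerization.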

For experiment [2], the system named is HCV replicon RNA replication in Huh-7 luc/neo (Huh-Luc) cells. Kind of experiment: HCV replicon assay (stable replicon cell reporter assay, luciferase read-out). The experiment is classed as cell-based, HCV type 1b. The essentials: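 Three-day compound exposure used Huh-Luc cells, which harbour an autonomously replicating genotype 1b NS3-NS5B replicon expressing luciferase and neo^R. Luciferase signal served as the replication read-out, and dose-response curves came from several concentrations per compound.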

Setting [3] is: NS5B Polymerase Assay IC50, 200 nM enzyme.
Where [4] appears, read: Hepatitis C virus, Huh-7, 72 h, read-out: Replicon Assay EC50, Huh-Luc cells, three days incubation, luciferase activity.
Setting [5] is: 200 nM enzyme, read-out: NS5B Polymerase Assay IC50.
Where [6] appears, read: Huh-Luc cells, three days incubation, luciferase activity, read-out: Replicon Assay EC50.

`CCCCC(=O)N1c2ccccc2NC2=C(C(=O)CC(C)(C)C2)C1c1ccc2c(c1)OCO2` (stereo not drawn) [compound 265]: the IC50 in experiment [1] (setting [3]) is over 42.7 µM. For the same molecule, the EC50 in experiment [2] (setting [4]) was 11.3 µM.
For `CC1(C)CC(=O)C2=C(C1)Nc1ccccc1N(C(=O)C(F)(F)F)C2c1ccc2c(c1)OCO2` (stereo not drawn) [compound 266], in that order: over 42.7 µM and 24 µM.
On to `CC1(C)CC(=O)C2=C(C1)Nc1ccccc1N(C(=O)C(F)(F)F)C2c1cccs1` (stereo not drawn) [compound 267], for which the IC50 in experiment [1] (setting [3]) is over 42.7 µM. The concentration for a half-maximal effect (EC50) in experiment [2] (setting [4]) is 9.39 µM.
The matching figures for `CC1(C)CC(=O)C2=C(C1)Nc1ccccc1N(C(=O)Cc1ccccc1)C2c1cc2c(cc1Br)OCO2` (stereo not drawn) [compound 268]: over 42.7 µM and 9.04 µM.
In turn, `CC1(C)CC(=O)C2=C(C1)Nc1ccccc1N(C(=O)c1ccccc1)C2c1cccs1` (stereo not drawn) [compound 269] came in with an IC50 in experiment [1] (setting [3]) of over 33.3 µM. Also, the EC50 in experiment [2] (setting [4]) worked out at 19.6 µM.
The molecule `CC(C)CC(=O)N1c2ccccc2NC2=C(C(=O)CC(C)(C)C2)C1c1cccnc1` (stereo not drawn) [compound 270] displayed an IC50 in experiment [1] (setting [3]) of over 33.3 µM. Besides, the EC50 in experiment [2] (setting [4]) was 25.5 µM.
For `Cc1ccc(C2C3=C(CC(C)(C)CC3=O)Nc3ccccc3N2C(=O)Cc2ccccc2)o1` (stereo not drawn) [compound 271], in that order: over 33.3 µM and 22.9 µM.
With `CC1(C)CC(=O)C2=C(C1)Nc1ccccc1N(C(=O)Cc1ccccc1)C2c1ccc2c(c1)OCO2` (stereo not drawn) [compound 275], the IC50 in experiment [1] (setting [3]) was over 42.7 µM. In experiment [2] (setting [4]), the EC50 stood at 10.1 µM.
`CC1(C)CC(=O)C2=C(C1)Nc1ccccc1N(C(=O)C(F)(F)F)C2c1ccco1` (stereo not drawn) [compound 276] returned an IC50 in experiment [1] (setting [3]) of over 42.7 µM. Further, the EC50 in experiment [2] (setting [4]) was over 32 µM.
For `CC(=O)N1c2ccccc2NC2=C(C(=O)CC(C)(C)C2)C1c1cc2c(cc1Br)OCO2` (stereo not drawn) [compound 277], in that order: over 42.7 µM and 13.6 µM.
As for `CC1(C)CC(=O)C2=C(C1)Nc1ccccc1N(C(=O)C(F)(F)F)C2c1ccc(-c2ccc(Br)cc2)o1` (stereo not drawn) [compound 278], the IC50 in experiment [1] (setting [3]) is over 42.7 µM. The EC50 in experiment [2] (setting [4]) stood at 13.3 µM.
Regarding `CC(=O)N1c2ccccc2NC2=C(C(=O)CC(C)(C)C2)C1c1ccc(-c2ccc([N+](=O)[O-])cc2Cl)o1` (stereo not drawn) [compound 279], the IC50 in experiment [1] (setting [3]) is over 42.7 µM. Besides, the EC50 in experiment [2] (setting [4]) turned out to be 9.27 µM.
The molecule `CC(=O)N1c2ccccc2NC2=C(C(=O)CC(C)(C)C2)C1c1ccc(-c2cccc(C(=O)O)c2)o1` (stereo not drawn) [compound 280] showed an IC50 in experiment [1] (setting [3]) of over 42.7 µM. Further, the EC50 in experiment [2] (setting [4]) is over 32 µM.
For `CC(=O)N1c2ccccc2NC2=C(C(=O)CC(C)(C)C2)C1c1ccccn1` (stereo not drawn) [compound 281], in that order: over 42.7 µM and over 32 µM.
For `CC(=O)N1c2ccccc2NC2=C(C(=O)CC(C)(C)C2)C1c1ccc(Br)s1` (stereo not drawn) [compound 282], in that order: over 42.7 µM and 17 µM.
The matching figures for `CC(=O)N1c2ccccc2NC2=C(C(=O)CC(C)(C)C2)C1c1ccc(C)o1` (stereo not drawn) [compound 283]: over 42.7 µM and over 32 µM.
The molecule `CC(=O)N1c2ccccc2NC2=C(C(=O)CC(C)(C)C2)C1c1ccc2c(c1)OCO2` (stereo not drawn) [compound 284] registered an IC50 in experiment [1] (setting [3]) of over 42.7 µM. In experiment [2] (setting [4]), the EC50 turned out to be 30.9 µM.
Take `O=C1CC(c2ccco2)CC2=C1C(c1cccc([N+](=O)[O-])c1)N(C(=O)c1ccccc1)c1ccccc1N2` (stereo not drawn) [compound 286]: the IC50 in experiment [1] (setting [5]) is over 42.7 µM. Moreover, the EC50 in experiment [2] (setting [6]) stood at 19.2 µM.
For `COc1ccc(C2C3=C(CC(c4cccs4)CC3=O)Nc3ccccc3N2C(=O)Nc2ccc(Cl)c(Cl)c2)cc1` (stereo not drawn) [compound 287], the IC50 in experiment [1] (setting [3]) is over 33.3 µM. Besides, in experiment [2] (setting [4]), the EC50 was 5.01 µM.
Regarding `CCC(=O)N1c2ccccc2NC2=C(C(=O)CC(c3ccco3)C2)C1c1cccc([N+](=O)[O-])c1` (stereo not drawn) [compound 288], the IC50 in experiment [1] (setting [5]) was over 42.7 µM. The EC50 in experiment [2] (setting [6]) was determined as 25 µM.
With `CCCCCC(=O)N1c2ccccc2NC2=C(C(=O)CC(c3ccco3)C2)C1c1ccc(Cl)cc1` (stereo not drawn) [compound 289], in experiment [1] (setting [3]), the IC50 was over 33.3 µM. Besides, the EC50 in experiment [2] (setting [4]) turned out to be 15.4 µM.
The matching figures for `CC(=O)N1c2ccccc2NC2=C(C(=O)CCC2)C1c1ccc(Cl)cc1Cl` (stereo not drawn) [compound 291, 10-Acetyl-11-(2,4-dichlorophenyl)-2,3,4,5,10,11-hexahydro-1H-dibenzo[b,e][1,4]-diazepin-1-one]: over 42.7 µM and over 32 µM.
`COc1ccc(C2C3=C(CC(c4ccco4)CC3=O)Nc3ccccc3N2C(C)=O)cc1OC` (stereo not drawn) [compound 293] gave an IC50 in experiment [1] (setting [3]) of over 42.7 µM. The EC50 in experiment [2] (setting [4]) is over 32 µM.
For `CC(=O)N1c2ccccc2NC2=C(C(=O)CC(C)C2)C1c1ccc(Cl)cc1Cl` (stereo not drawn) [compound 294, 10-acetyl-11-(2,4-dichlorophenyl)-3-methyl-2,3,4,5,10,11-hexahydro-1H-dibenzo[b,e][1,4]diazepin-1-one], in that order: 10.4 µM and 42 µM.
The matching figures for `CCN(CC)c1ccc(C2CC(=O)C3=C(C2)Nc2ccccc2N(C(=O)c2ccccc2)C3c2ccco2)cc1` (stereo not drawn) [compound 295]: over 42.7 µM and 21.6 µM.
`O=C1CC(c2cccc([N+](=O)[O-])c2)CC2=C1C(c1ccco1)N(C(=O)C(F)(F)F)c1ccccc1N2` (stereo not drawn) [compound 296] returned an IC50 in experiment [1] (setting [3]) of over 42.7 µM. For the same molecule, the EC50 in experiment [2] (setting [4]) was found to be 18.3 µM.
For `O=C1CC(c2ccco2)CC2=C1C(c1ccco1)N(C(=O)C(F)(F)F)c1ccccc1N2` (stereo not drawn) [compound 297], in that order: over 42.7 µM and 23.6 µM.
Regarding `COc1ccc(C2CC(=O)C3=C(C2)Nc2ccccc2N(C(C)=O)C3c2ccco2)cc1` (stereo not drawn) [compound 298], in experiment [1] (setting [5]), the IC50 was over 42.7 µM. Besides, the EC50 in experiment [2] (setting [6]) is over 32 µM.
For `CC(=O)N1c2ccccc2NC2=C(C(=O)CC(c3ccccc3OCc3ccccc3)C2)C1C(Br)=Cc1ccccc1` (stereo not drawn) [compound 300], in that order: over 133 µM and 0.706 µM.
Turning to `COc1cc2c(cc1OC)N(C(C)=O)C(c1ccc(Cl)cc1Cl)C1=C(CC(C)(C)CC1=O)N2` (stereo not drawn) [compound 309, 10-acetyl-7,8-dimethoxy-11-(2,4-dichlorophenyl)-3,3-dimethyl-2,3,4,5,10,11-hexahydro-1H-dibenzo[b,e][1,4]diazepin-1-one], in experiment [1] (setting [3]), the IC50 was over 133 µM. Also, the EC50 in experiment [2] (setting [4]) was 39.6 µM.
Regarding `CC(=O)N1c2cc(F)c(F)cc2NC2=C(C(=O)CC(C)(C)C2)C1c1ccc(Cl)cc1Cl` (stereo not drawn) [compound 310, 10-acetyl-7,8-difluoro-11-(2,4-dichlorophenyl)-3,3-dimethyl-2,3,4,5,10,11-hexahydro-1H-dibenzo[b,e][1,4]diazepin-1-one], in experiment [1] (setting [3]), half-maximal inhibition (IC50) was put at 14.5 µM. Besides, the EC50 in experiment [2] (setting [4]) was 16.4 µM.
For `CC(=O)N1c2cccc(Br)c2NC2=C(C(=O)CC(C)(C)C2)C1c1ccc(Cl)cc1Cl` (stereo not drawn) [compound 312], in that order: 6.11 µM and 7.81 µM.
As for `CC(=O)N1c2c(C)cccc2NC2=C(C(=O)CC(C)(C)C2)C1c1ccc(Cl)cc1Cl` (stereo not drawn) [compound 314], the IC50 in experiment [1] (setting [3]) is 4.43 µM. Further, the EC50 in experiment [2] (setting [4]) turned out to be 3 µM.
In the case of `CC(=O)N1c2cccc(C#N)c2NC2=C(C(=O)CC(C)(C)C2)C1c1ccc(Cl)cc1Cl` (stereo not drawn) [compound 316], half-maximal inhibition in experiment [1] (setting [3]) (IC50) required 6.97 µM. In addition, in experiment [2] (setting [4]), the EC50 was found to be 15.4 µM.
Consider `CCCCOc1cccc2c1NC1=C(C(=O)CC(C)(C)C1)C(c1ccc(Cl)cc1Cl)N2C(C)=O` (stereo not drawn) [compound 317], for which the IC50 in experiment [1] (setting [3]) was over 133 µM. In addition, the EC50 in experiment [2] (setting [4]) amounted to 5.75 µM.
For `COc1cccc2c1NC1=C(C(=O)CC(C)(C)C1)C(c1ccc(Cl)cc1Cl)N2C(C)=O` (stereo not drawn) [compound 320], in that order: 6.77 µM and 33 µM.
